Reference: US8575158B2, “1-phenyl-substituted heterocyclyl derivatives and their use as prostaglandin D2 receptor modulators” (Actelion Pharmaceuticals Ltd., priority 2010, dated 2013)

Target: T1, hCRTH2 receptor (Homo sapiens, UniProt Q9Y5Y4)
T1 construct: expressed in transfected cells; host or cells: HEK293
T1 sequence (Q9Y5Y4 1-395): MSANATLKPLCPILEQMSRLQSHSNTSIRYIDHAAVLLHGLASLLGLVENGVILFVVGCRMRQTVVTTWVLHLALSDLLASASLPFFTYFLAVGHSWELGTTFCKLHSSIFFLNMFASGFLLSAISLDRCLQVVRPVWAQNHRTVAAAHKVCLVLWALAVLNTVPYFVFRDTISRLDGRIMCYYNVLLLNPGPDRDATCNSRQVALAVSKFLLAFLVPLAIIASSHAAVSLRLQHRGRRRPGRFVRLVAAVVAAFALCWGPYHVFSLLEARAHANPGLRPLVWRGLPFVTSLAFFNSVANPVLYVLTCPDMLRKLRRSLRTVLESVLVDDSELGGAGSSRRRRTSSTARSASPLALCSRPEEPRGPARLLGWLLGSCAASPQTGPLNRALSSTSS
Test: Radioligand displacement assay (3H-PGD2) on hCRTH2 receptor membranes
Format: binding
Settings: antagonistic activity, 3H-PGD2 radioligand displacement, HEK293-hCRTH2 membranes

SMILES | IC50 [nM]
O=C(O)COc1ccc(Cl)cc1[C@@H]1c2ccc(F)c(F)c2CCN1C(=O)OCc1cccc(F)c1 [Example 350, (S)-1-(2-Carboxymethoxy-5-chloro-phenyl)-5,6-difluoro-3,4-dihydro-1H-isoquinoline-2-carboxylic acid 3-fluoro-benzyl ester] | 3.38
O=C(O)COc1ccc(Cl)cc1[C@@H]1c2ccc(F)cc2CCN1C(=O)OCc1cccc(F)c1F [Example 354, (S)-1-(2-Carboxymethoxy-5-chloro-phenyl)-6-fluoro-3,4-dihydro-1H-isoquinoline-2-carboxylic acid 2,3-difluoro-benzyl ester] | 7.72
COc1ccccc1COC(=O)N1CCc2ccccc2[C@H]1c1cc(Cl)ccc1OCC(=O)O [Example 356, (S)-1-(2-Carboxymethoxy-5-chloro-phenyl)-3,4-dihydro-1H-isoquinoline-2-carboxylic acid 2-methoxy-benzyl ester] | 3.58
O=C(O)COc1ccc(Cl)cc1[C@@H]1c2ccc(F)cc2CCN1C(=O)OCc1ccccc1 [Example 367] | 4.89
Cc1nn(CCC(=O)N2CCc3cc(F)ccc3[C@H]2c2cc(Cl)ccc2OCC(=O)O)c2cccc(F)c12 [Example 391] | 158
Cc1nn(CCC(=O)N2CCc3cc(F)ccc3[C@H]2c2cc(Cl)ccc2OCC(=O)O)c2c(F)cccc12 [Example 392] | 273
Cc1nn(CCC(=O)N2CCc3cc(F)ccc3[C@H]2c2cc(Cl)ccc2OCC(=O)O)c2cc(F)ccc12 [Example 393] | 154
Cc1nn(CCC(=O)N2CCc3cc(F)ccc3[C@H]2c2cc(Cl)ccc2OCC(=O)O)c2cc(Cl)ccc12 [Example 394] | 185

The next compounds have a lower IC50 than those just listed; values first:

IC50 [nM] | SMILES
3.27 | O=C(O)COc1ccc(Cl)cc1[C@@H]1c2ccc(F)c(F)c2CCN1C(=O)OCc1cccc(F)c1F [Example 351, (S)-1-(2-Carboxymethoxy-5-chloro-phenyl)-5,6-difluoro-3,4-dihydro-1H-isoquinoline-2-carboxylic acid 2,3-difluoro-benzyl ester]
2.84 | O=C(O)COc1ccc(Cl)cc1[C@@H]1c2cccc(F)c2CCN1C(=O)OCc1cccc(F)c1 [Example 358, (S)-1-(2-Carboxymethoxy-5-chloro-phenyl)-5-fluoro-3,4-dihydro-1H-isoquinoline-2-carboxylic acid 3-fluoro-benzyl ester]
2.79 | O=C(O)COc1ccc(Cl)cc1[C@@H]1c2ccc(F)cc2CCN1C(=O)OCc1cccc(F)c1 [Example 353, (S)-1-(2-Carboxymethoxy-5-chloro-phenyl)-6-fluoro-3,4-dihydro-1H-isoquinoline-2-carboxylic acid 3-fluoro-benzyl ester]
2.01 | O=C(O)COc1ccc(Cl)cc1[C@@H]1c2ccccc2CCN1C(=O)OCc1cccc(F)c1 [Example 355, (S)-1-(2-Carboxymethoxy-5-chloro-phenyl)-3,4-dihydro-1H-isoquinoline-2-carboxylic acid 3-fluoro-benzyl ester]
1.87 | O=C(O)COc1ccc(Cl)cc1[C@@H]1c2ccc(F)cc2CCN1C(=O)OCc1ccccc1F [Example 352, (S)-1-(2-Carboxymethoxy-5-chloro-phenyl)-6-fluoro-3,4-dihydro-1H-isoquinoline-2-carboxylic acid 2-fluoro-benzyl ester]
1.79 | O=C(O)COc1ccc(Cl)cc1[C@@H]1c2cccc(F)c2CCN1C(=O)OCc1ccccc1F [Example 359, (S)-1-(2-Carboxymethoxy-5-chloro-phenyl)-5-fluoro-3,4-dihydro-1H-isoquinoline-2-carboxylic acid 2-fluoro-benzyl ester]
1.23 | O=C(O)COc1ccc(Cl)cc1[C@@H]1c2ccccc2CCN1C(=O)OCc1ccccc1F [Example 357, (S)-1-(2-Carboxymethoxy-5-chloro-phenyl)-3,4-dihydro-1H-isoquinoline-2-carboxylic acid 2-fluoro-benzyl ester]
